According to patent US20260317320A1, “C5AR1 ANTAGONISTS AND USES THEREOF” (Vanqua Bio, Inc., priority 2022, published 2026):
Where two headings read alike, the source gives them in different places.

Experiments:
[1] = target: T1, complement C5a receptor 1 (C5aR1) (Homo sapiens, UniProt P21730); assay: β-arrestin recruitment via C5aR1 activation in live CHO-K1 cells (PathHunter), agonist mode; type: cell-based
T1 construct: β-galactosidase fragment (PathHunter enzyme complementation); host or cells: CHO-K1 (PathHunter CHO-K1 C5aR1 β-arrestin cell line)
T1 sequence (P21730 1-350): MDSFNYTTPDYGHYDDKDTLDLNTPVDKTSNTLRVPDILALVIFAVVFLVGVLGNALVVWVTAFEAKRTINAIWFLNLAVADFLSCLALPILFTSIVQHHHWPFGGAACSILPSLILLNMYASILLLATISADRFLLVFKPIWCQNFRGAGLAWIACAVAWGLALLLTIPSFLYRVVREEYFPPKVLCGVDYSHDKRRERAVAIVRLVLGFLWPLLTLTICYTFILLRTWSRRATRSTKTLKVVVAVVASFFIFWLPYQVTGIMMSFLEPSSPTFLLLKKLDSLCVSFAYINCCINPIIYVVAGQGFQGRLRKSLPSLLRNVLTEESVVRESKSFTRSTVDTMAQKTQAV
Summary of the method: (§1)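 Live CHO-K1 cells expressing β-galactosidase fragments fused to β-arrestin and C5aR1; recruitment is read by fragment complementation. In agonist mode compounds are tested alone; in antagonist mode they compete against recombinant hC5a at EC90. IC50 reported in binned ranges.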

[2] = target: T1, complement C5a receptor 1 (C5aR1); assay: β-arrestin recruitment via C5aR1 activation in live CHO-K1 cells (PathHunter), antagonist mode; type: cell-based; conditions: antagonist mode; recombinant hC5a (EC90) as competing natural agonist; live CHO-K1 cells; read-out: [Antagonist] B-arrestin2 recruitment: Average IC50
Summary of the method: as §1

Row | SMILES | [Agonist] B-arrestin2 recruitment: Average EC50 (nM) ([1]; at 10 μM) | IC50 [2] [nM] | [Agonist] B-arrestin2 recruitment: Average EC50 (nM) [1]
1 | Cc1cccc(F)c1[C@H]1CC[C@H](c2cc3ncc(CC(F)(F)F)nc3n(Cc3ncccc3C(F)(F)F)c2=O)CC1 [compound 229, 7-((1r,4r)-4-(2-Fluoro-6-methylphenyl)cyclohexyl)-3-(2,2,2-trifluoroethyl)-5-((3-(trifluoromethyl)pyridin-2-yl)methyl)pyrido[2,3-b]pyrazin-6(5H)-one] | Non-Active at 10 μM | < 500 | –
2 | COc1nccc(C)c1[C@H]1CC[C@H](c2cc3ncc(C)nc3n(Cc3ncccc3C(F)(F)F)c2=O)CC1 [compound 230, 7-((1r,4r)-4-(2-Methoxy-4-methylpyridin-3-yl)cyclohexyl)-3-methyl-5-((3-(trifluoromethyl)pyridine-2-yl)methyl)pyrido[2,3-b]pyrazin-6(5H)-one] | Non-Active at 10 μM | < 500 | –
3 | Cc1cccc(F)c1[C@H]1CC[C@H](c2cc3ncc(CC(F)F)nc3n(Cc3ncccc3C(F)(F)F)c2=O)CC1 [compound 231, 3-(2,2-Difluoroethyl)-7-((1r,4r)-4-(2-fluoro-6-methylphenyl)cyclohexyl)-5-((3-(trifluoromethyl)pyridin-2-yl)methyl)pyrido[2,3-b]pyrazin-6(5H)-one] | Non-Active at 10 μM | < 500 | –
4 | Cc1cnc2cc([C@H]3CC[C@H](c4c(C)cccc4F)CC3)c(=O)n(Cc3ncccc3CC(F)F)c2n1 [compound 232, 5-((3-(2,2-Difluoroethyl)pyridin-2-yl)methyl)-7-((1r,4r)-4-(2-fluoro-6-methylphenyl)cyclohexyl)-3-methylpyrido[2,3-b]pyrazin-6(5H)-one] | Non-Active at 10 μM | < 500 | –
5 | Cc1ccc2cc([C@H]3CC[C@H](c4c(C)cccc4F)CC3)c(=O)n(Cc3nccnc3OC(F)F)c2n1 [compound 233, 1-((3-(Difluoromethoxy)pyrazin-2-yl)methyl)-3-((1r,4r)-4-(2-fluoro-6-methylphenyl)cyclohexyl)-7-methyl-1,8-naphthyridin-2(1H)-one] | Non-Active at 10 μM | < 500 | –
6 | COc1nccc(C)c1[C@H]1CC[C@H](c2cc3ccc(C)nc3n(Cc3ncccc3C(F)(F)F)c2=O)CC1 [compound 234, 3-((1r,4r)-4-(2-Methoxy-4-methylpyridin-3-yl)cyclohexyl)-7-methyl-1-((3-(trifluoromethyl)pyridin-2-yl)methyl)-1,8-naphthyridin-2(1H)-one] | Non-Active at 10 μM | < 500 | –
7 | Cc1cnc2cc([C@H]3CC[C@H](c4c(F)cccc4F)CC3)c(=O)n(Cc3ncccc3C3CC3)c2n1 [compound 235, 5-((3-Cyclopropylpyridin-2-yl)methyl)-7-((1r,4r)-4-(2,6-difluorophenyl)cyclohexyl)-3-methylpyrido[2,3-b]pyrazin-6(5H)-one] | Non-Active at 10 μM | < 500 | –
8 | Cc1cnc2cc([C@H]3CC[C@H](c4c(F)cccc4F)CC3)c(=O)n(Cc3ncccc3CC(F)(F)F)c2n1 [compound 236, 7-((1r,4r)-4-(2,6-Difluorophenyl)cyclohexyl)-3-methyl-5-((3-(2,2,2-trifluoroethyl)pyridin-2-yl)methyl)pyrido[2,3-b]pyrazin-6(5H)-one] | Non-Active at 10 μM | < 500 | –
9 | Cc1cnc2cc([C@H]3CC[C@H](c4c(C)cncc4F)CC3)c(=O)n(Cc3ncccc3C(F)(F)F)c2n1 [compound 237, 7-((1r,4r)-4-(3-Fluoro-5-methylpyridin-4-yl)cyclohexyl)-3-methyl-5-((3-(trifluoromethyl)pyridin-2-yl)methyl)pyrido[2,3-b]pyrazin-6(5H)-one] | – | < 500 | Non-Active
10 | Cc1cnc2cc([C@H]3CC[C@H](c4c(C)cccc4F)CC3)c(=O)n(Cc3ncccc3OC3CC3)c2n1 [compound 238, 5-((3-Cyclopropoxypyridin-2-yl)methyl)-7-((1r,4r)-4-(2-fluoro-6-methylphenyl)cyclohexyl)-3-methylpyrido[2,3-b]pyrazin-6(5H)-one] | – | < 500 | Non-Active
11 | Cc1ccc2cc([C@H]3CC[C@H](c4c(C)cccc4F)CC3)c(=O)n(Cc3ncccc3CC(F)(F)F)c2n1 [compound 239, 3-((1r,4r)-4-(2-fluoro-6-methylphenyl)cyclohexyl)-7-methyl-1-((3-(2,2,2-trifluoroethyl)pyridin-2-yl)methyl)-1,8-naphthyridin-2(1H)-one] | – | < 500 | Non-Active
12 | Cc1cccc(F)c1[C@H]1CC[C@H](c2cc3ncc(C(F)F)nc3n(Cc3ncccc3C(F)(F)F)c2=O)CC1 [compound 240, 3-(Difluoromethyl)-7-((1r,4r)-4-(2-fluoro-6-methylphenyl)cyclohexyl)-5-((3-(trifluoromethyl)pyridin-2-yl)methyl)pyrido[2,3-b]pyrazin-6(5H)-one] | – | < 500 | Non-Active
13 | Cc1ccc2cc([C@H]3CC[C@H](c4c(C)cccc4F)CC3)c(=O)n(Cc3ncccc3C3CC3)c2n1 [compound 241, 1-((3-Cyclopropylpyridin-2-yl)methyl)-3-((1r,4r)-4-(2-fluoro-6-methylphenyl)cyclohexyl)-7-methyl-1,8-naphthyridin-2(1H)-one] | – | < 500 | Non-Active
14 | Cc1cnc2cc([C@H]3CC[C@H](c4cnsc4C)CC3)c(=O)n(Cc3nccnc3C(F)(F)F)c2n1 [compound 242, 3-Methyl-7-((1r,4r)-4-(5-methylisothiazol-4-yl)cyclohexyl)-5-((3-(trifluoromethyl)pyrazin-2-yl)methyl)pyrido[2,3-b]pyrazin-6(5H)-one] | – | < 500 | Non-Active
15 | Cc1ccc2cc([C@H]3CC[C@H](c4ccccc4C(F)(F)F)CC3)c(=O)n(Cc3ncccc3OC(F)(F)F)c2n1 [compound 244, 7-Methyl-1-((3-(trifluoromethoxy)pyridin-2-yl)methyl)-3-((1r,4r)-4-(2-(trifluoromethyl)phenyl)cyclohexyl)-1,8-naphthyridin-2(1H)-one] | – | < 500 | Non-Active
16 | Cc1ccc2cc([C@H]3CC[C@H](c4c(F)cccc4F)CC3)c(=O)n(Cc3ncccc3C3CC3)c2n1 [compound 245, 1-((3-Cyclopropylpyridin-2-yl)methyl)-3-((1r,4r)-4-(2,6-difluorophenyl)cyclohexyl)-7-methyl-1,8-naphthyridin-2(1H)-one] | Non-Active at 10 μM | < 500 | –
17 | Cc1ccc2cc([C@H]3CC[C@H](c4c(F)cccc4F)CC3)c(=O)n(Cc3ncccc3OC(F)(F)F)c2n1 [compound 246, 3-((1r,4r)-4-(2,6-Difluorophenyl)cyclohexyl)-7-methyl-1-((3-(trifluoromethoxy)pyridin-2-yl)methyl)-1,8-naphthyridin-2(1H)-one] | Non-Active at 10 μM | < 500 | –
18 | Cc1ccc2cc([C@H]3CC[C@H](c4cnccc4C(F)(F)F)CC3)c(=O)n(Cc3ncccc3OC(F)(F)F)c2n1 [compound 247, 7-Methyl-1-((3-(trifluoromethoxy)pyridin-2-yl)methyl)-3-((1r,4r)-4-(4-(trifluoromethyl)pyridin-3-yl)cyclohexyl)-1,8-naphthyridin-2(1H)-one] | Non-Active at 10 μM | < 500 | –
